Assays:
[1] = Headspace concentration of fragrance ingredients over blotter (thermal desorption GC-MS); type: physicochemical; settings: for headspace concentration in composition C1 compared to control EdT1 / headspace concentration in composition C14 compared to control EdT1 / headspace concentration in composition C15 compared to control EdT1: fragrance TAK; for headspace concentration in composition C14 compared to control EdT1 / headspace concentration in composition C15 compared to control EdT1: T0+4h and T0+8h; for headspace concentration in composition C14 compared to control EdT1: Figures 17 and 18; for headspace concentration in composition C15 compared to control EdT1: Figures 20 and 21, difference significant for linalool, linalyl acetate and Verdox™;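 for headspace concentration in composition C1 compared to control EdT1: C1 is an invention composition and EdT1 a conventional EdT of fragrance TAK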
How it was run: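 Fragrance (100µL) applied to a 10 cm perfumers' blotter held on a 32°C hot plate, equilibrated 5 min; headspace drawn through Tenax TA tubes at 17mL/min until 280mL collected, repeated at later sampling times. Tubes thermally desorbed splitless onto HP-5MS column, GC-MS detection, mass range 35 to 350.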

[2] = Amount of fragrance ingredients retained on paper blotter after evaporation (ethanol extraction, GC-MS); type: physicochemical
How it was run: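 100 µL of fragrance formulation applied to paper blotters kept at 32°C open to air; at each time three blotters extracted 1 h in ethanol with methyl decanoate internal standard and analysed by GC-MS (HP-5MS, 50–280°C). Amounts averaged over triplicates and expressed as percent of time-zero level.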

[3] = Table 3, fragrance TAK in C1, 15 min, 32°C
[4] = Table 3, fragrance TAK in C1, 60 min, 32°C
[5] = Table 3, fragrance TAK in C1, 120 min, 32°C
[6] = Table 3, fragrance TAK in C1, 240 min, 32°C
[7] = Table 3, fragrance TAK in C1, 480 min, 32°C
[8] = Table 3, fragrance TAK in EdT1, 15 min, 32°C
[9] = Table 3, fragrance TAK in EdT1, 60 min, 32°C
[10] = Table 3, fragrance TAK in EdT1, 120 min, 32°C
[11] = Table 3, fragrance TAK in EdT1, 240 min, 32°C
[12] = Table 3, fragrance TAK in EdT1, 480 min, 32°C
[13] = Table 3, fragrance TAK in EdT1 or C1, T0, set at 100% (normalisation)
[14] = Table 4, fragrance TAK in C2, 15 min, 32°C
[15] = Table 4, fragrance TAK in C2, 480 min, 32°C
[16] = Table 4, fragrance TAK in EdT1, 15 min, 32°C
[17] = Table 4, fragrance TAK in EdT1, 480 min, 32°C
[18] = Table 4, fragrance TAK in EdT1 or C2, T0, set at 100% (normalisation)
[19] = Table 5, fragrance TAK in C3, 15 min, 32°C
[20] = Table 5, fragrance TAK in C3, 60 min, 32°C
[21] = Table 5, fragrance TAK in C3, 120 min, 32°C
[22] = Table 5, fragrance TAK in C3, 240 min, 32°C
[23] = Table 5, fragrance TAK in C3, 480 min, 32°C
[24] = Table 5, fragrance TAK in C3, 1440 min, 32°C
[25] = Table 5, fragrance TAK in EdT1, 15 min, 32°C
[26] = Table 5, fragrance TAK in EdT1, 60 min, 32°C
[27] = Table 5, fragrance TAK in EdT1, 120 min, 32°C
[28] = Table 5, fragrance TAK in EdT1, 240 min, 32°C
[29] = Table 5, fragrance TAK in EdT1, 480 min, 32°C
[30] = Table 5, fragrance TAK in EdT1, 1440 min, 32°C
[31] = Table 5, fragrance TAK in EdT1 or C3, T0, set at 100% (normalisation)
[32] = Table 6, fragrance TAK in C4, 15 min, 32°C
[33] = Table 6, fragrance TAK in C4, 60 min, 32°C
[34] = Table 6, fragrance TAK in C4, 120 min, 32°C
[35] = Table 6, fragrance TAK in C4, 240 min, 32°C
[36] = Table 6, fragrance TAK in C4, 480 min, 32°C
[37] = Table 6, fragrance TAK in EdT1, 15 min, 32°C
[38] = Table 6, fragrance TAK in EdT1, 60 min, 32°C
[39] = Table 6, fragrance TAK in EdT1, 120 min, 32°C
[40] = Table 6, fragrance TAK in EdT1, 240 min, 32°C
[41] = Table 6, fragrance TAK in EdT1, 480 min, 32°C
[42] = Table 6, fragrance TAK in EdT1 or C4, T0, set at 100% (normalisation)

C=CC(C)(CCC=C(C)C)OC(C)=O (centres unmarked) [Linalyl acetate]
headspace concentration in composition C1 compared to control EdT1 ([1]; T0 + 4h, Figure 3): significantly greater | headspace concentration in composition C14 compared to control EdT1 [1]: significantly greater | headspace concentration in composition C15 compared to control EdT1 [1]: greater | headspace concentration in composition C1 compared to control EdT1 ([1]; T0 + 8h, Figure 4): much greater | headspace concentration in composition C1 compared to control EdT1 ([1]; after 1 hour, Figure 2): greater | amount of fragrance ingredient retained on blotter (percentage of the initial amount) [2, 3]: 79% | amount of fragrance ingredient retained on blotter (percentage of the initial amount) [2, 4]: 62% | amount of fragrance ingredient retained on blotter (percentage of the initial amount) [2, 5]: 39% | amount of fragrance ingredient retained on blotter (percentage of the initial amount) [2, 6]: 19% | amount of fragrance ingredient retained on blotter (percentage of the initial amount) [2, 7]: 7% | amount of fragrance ingredient retained on blotter (percentage of the initial amount) [2, 8]: 70% | amount of fragrance ingredient retained on blotter (percentage of the initial amount) [2, 9]: 27% | amount of fragrance ingredient retained on blotter (percentage of the initial amount) [2, 10]: 6% | amount of fragrance ingredient retained on blotter (percentage of the initial amount) [2, 11]: 2% | amount of fragrance ingredient retained on blotter (percentage of the initial amount) [2, 12]: <1% | amount of fragrance ingredient retained on blotter (percentage of the initial amount) [2, 13]: 100% | amount of fragrance ingredient retained on blotter (percentage of the initial amount) [2, 14]: 92% | amount of fragrance ingredient retained on blotter (percentage of the initial amount) [2, 15]: 9% | amount of fragrance ingredient retained on blotter (percentage of the initial amount) [2, 16]: 72% | amount of fragrance ingredient retained on blotter (percentage of the initial amount) [2, 17]: 2% | amount of fragrance ingredient retained on blotter (percentage of the initial amount) [2, 18]: 100% | amount of fragrance ingredient retained on blotter (percentage of the initial amount) [2, 19]: 83% | amount of fragrance ingredient retained on blotter (percentage of the initial amount) [2, 20]: 62% | amount of fragrance ingredient retained on blotter (percentage of the initial amount) [2, 21]: 41% | amount of fragrance ingredient retained on blotter (percentage of the initial amount) [2, 22]: 24% | amount of fragrance ingredient retained on blotter (percentage of the initial amount) [2, 23]: 8% | amount of fragrance ingredient retained on blotter (percentage of the initial amount) [2, 24]: 3% | amount of fragrance ingredient retained on blotter (percentage of the initial amount) [2, 25]: 70% | amount of fragrance ingredient retained on blotter (percentage of the initial amount) [2, 26]: 26% | amount of fragrance ingredient retained on blotter (percentage of the initial amount) [2, 27]: 6% | amount of fragrance ingredient retained on blotter (percentage of the initial amount) [2, 28]: 2% | amount of fragrance ingredient retained on blotter (percentage of the initial amount) [2, 29]: <1% | amount of fragrance ingredient retained on blotter (percentage of the initial amount) [2, 30]: <1% | amount of fragrance ingredient retained on blotter (percentage of the initial amount) [2, 31]: 100% | amount of fragrance ingredient retained on blotter (percentage of the initial amount) [2, 32]: 82% | amount of fragrance ingredient retained on blotter (percentage of the initial amount) [2, 33]: 62% | amount of fragrance ingredient retained on blotter (percentage of the initial amount) [2, 34]: 34% | amount of fragrance ingredient retained on blotter (percentage of the initial amount) [2, 35]: 18% | amount of fragrance ingredient retained on blotter (percentage of the initial amount) [2, 36]: 10% | amount of fragrance ingredient retained on blotter (percentage of the initial amount) [2, 37]: 70% | amount of fragrance ingredient retained on blotter (percentage of the initial amount) [2, 38]: 27% | amount of fragrance ingredient retained on blotter (percentage of the initial amount) [2, 39]: 6% | amount of fragrance ingredient retained on blotter (percentage of the initial amount) [2, 40]: 2% | amount of fragrance ingredient retained on blotter (percentage of the initial amount) [2, 41]: <1% | amount of fragrance ingredient retained on blotter (percentage of the initial amount) [2, 42]: 100%

CC(=O)OC1CCCCC1C(C)(C)C (centres unmarked) [Verdox™, (2-tert-butylcyclohexyl) acetate]
headspace concentration in composition C8 compared to control EdT4 ([1]; COM1 dosed at 20 wt%, up to 8 hours, Figures 8 to 10): significantly higher | headspace concentration in composition C1 compared to control EdT1 ([1]; T0 + 4h, Figure 3): significantly greater | headspace concentration in composition C14 compared to control EdT1 [1]: significantly greater | headspace concentration in composition C15 compared to control EdT1 [1]: greater | headspace concentration in composition C1 compared to control EdT1 ([1]; T0 + 8h, Figure 4): much greater | headspace concentration in composition C1 compared to control EdT1 ([1]; after 1 hour, Figure 2): greater | amount of fragrance ingredient retained on blotter (percentage of the initial amount) [2, 3]: 80% | amount of fragrance ingredient retained on blotter (percentage of the initial amount) [2, 4]: 62% | amount of fragrance ingredient retained on blotter (percentage of the initial amount) [2, 5]: 39% | amount of fragrance ingredient retained on blotter (percentage of the initial amount) [2, 6]: 18% | amount of fragrance ingredient retained on blotter (percentage of the initial amount) [2, 7]: 2% | amount of fragrance ingredient retained on blotter (percentage of the initial amount) [2, 8]: 70% | amount of fragrance ingredient retained on blotter (percentage of the initial amount) [2, 9]: 29% | amount of fragrance ingredient retained on blotter (percentage of the initial amount) [2, 10]: 2% | amount of fragrance ingredient retained on blotter (percentage of the initial amount) [2, 11]: <1% | amount of fragrance ingredient retained on blotter (percentage of the initial amount) [2, 12]: 1% | amount of fragrance ingredient retained on blotter (percentage of the initial amount) [2, 13]: 100% | amount of fragrance ingredient retained on blotter (percentage of the initial amount) [2, 14]: 92% | amount of fragrance ingredient retained on blotter (percentage of the initial amount) [2, 15]: 3% | amount of fragrance ingredient retained on blotter (percentage of the initial amount) [2, 16]: 74% | amount of fragrance ingredient retained on blotter (percentage of the initial amount) [2, 17]: <1% | amount of fragrance ingredient retained on blotter (percentage of the initial amount) [2, 18]: 100% | amount of fragrance ingredient retained on blotter (percentage of the initial amount) [2, 19]: 83% | amount of fragrance ingredient retained on blotter (percentage of the initial amount) [2, 20]: 64% | amount of fragrance ingredient retained on blotter (percentage of the initial amount) [2, 21]: 44% | amount of fragrance ingredient retained on blotter (percentage of the initial amount) [2, 22]: 27% | amount of fragrance ingredient retained on blotter (percentage of the initial amount) [2, 23]: 3% | amount of fragrance ingredient retained on blotter (percentage of the initial amount) [2, 24]: <1% | amount of fragrance ingredient retained on blotter (percentage of the initial amount) [2, 25]: 70% | amount of fragrance ingredient retained on blotter (percentage of the initial amount) [2, 26]: 27% | amount of fragrance ingredient retained on blotter (percentage of the initial amount) [2, 27]: 2% | amount of fragrance ingredient retained on blotter (percentage of the initial amount) [2, 28]: <1% | amount of fragrance ingredient retained on blotter (percentage of the initial amount) [2, 29]: 1% | amount of fragrance ingredient retained on blotter (percentage of the initial amount) [2, 30]: <1% | amount of fragrance ingredient retained on blotter (percentage of the initial amount) [2, 31]: 100% | amount of fragrance ingredient retained on blotter (percentage of the initial amount) [2, 32]: 83% | amount of fragrance ingredient retained on blotter (percentage of the initial amount) [2, 33]: 64% | amount of fragrance ingredient retained on blotter (percentage of the initial amount) [2, 34]: 36% | amount of fragrance ingredient retained on blotter (percentage of the initial amount) [2, 35]: 18% | amount of fragrance ingredient retained on blotter (percentage of the initial amount) [2, 36]: 3% | amount of fragrance ingredient retained on blotter (percentage of the initial amount) [2, 37]: 70% | amount of fragrance ingredient retained on blotter (percentage of the initial amount) [2, 38]: 29% | amount of fragrance ingredient retained on blotter (percentage of the initial amount) [2, 39]: 2% | amount of fragrance ingredient retained on blotter (percentage of the initial amount) [2, 40]: <1% | amount of fragrance ingredient retained on blotter (percentage of the initial amount) [2, 41]: 1% | amount of fragrance ingredient retained on blotter (percentage of the initial amount) [2, 42]: 100% | amount of fragrance ingredient retained on blotter (percentage of the initial amount) ([2]; Table 9, fragrance COM1 in C5, T0 + 15 min): 75.1% | amount of fragrance ingredient retained on blotter (percentage of the initial amount) ([2]; Table 9, fragrance COM1 in C5, T0 + 480 min): 1.9% | amount of fragrance ingredient retained on blotter (percentage of the initial amount) ([2]; Table 9, fragrance COM1 in C5, T0 +1440 min): <1% | amount of fragrance ingredient retained on blotter (percentage of the initial amount) ([2]; Table 9, fragrance COM1 in C6, T0 + 15 min): 66.4% | amount of fragrance ingredient retained on blotter (percentage of the initial amount) ([2]; Table 9, fragrance COM1 in C6, T0 + 480 min): 1.7% | amount of fragrance ingredient retained on blotter (percentage of the initial amount) ([2]; Table 9, fragrance COM1 in C6, T0 +1440 min): 1.0% | amount of fragrance ingredient retained on blotter (percentage of the initial amount) ([2]; Table 9, fragrance COM1 in EdT2, C5 or C6, T0, set at 100% (normalisation)): 100% | amount of fragrance ingredient retained on blotter (percentage of the initial amount) ([2]; Table 9, fragrance COM1 in EdT2, T0 + 15 min): 61.7% | amount of fragrance ingredient retained on blotter (percentage of the initial amount) ([2]; Table 9, fragrance COM1 in EdT2, T0 + 480 min): 3.7% | amount of fragrance ingredient retained on blotter (percentage of the initial amount) ([2]; Table 9, fragrance COM1 in EdT2, T0 +1440 min): 2.90%

From patent publication EP3375430A1, “FRAGRANCE COMPOSITIONS” (Takasago International Corporation, priority 2017, dated 2018)
